Assays:
[1] = system: guinea pig gall bladder contracted with CCK-8; assay: Anti-CCK activity on guinea pig gall bladders in vitro; assay type: biochemical; settings: CCK-8 10 ng/ml, concentration antagonising 50% of contracting effect
Description: A longitudinal strip of guinea pig gall bladder is placed in a bath of Krebs for isolated organs at a temperature of 32° C. and oxygenated continuously with an oxygen-CO2 mixture (95-5 V/V).
The […] contractions are detected by means of a force transducer and recorded.
The gall bladder is contracted with the use of a CCK-8 solution at a concentration of 10 ng/ml; the antagonistic activity of the compounds of the invention towards the contracting effect of the CCK is determined with the use of different concentrations, the ED50 value, that is the concentration of the compound in mcg/ml capable of antagonising 50% of the contracting effect of the CCK, being determined.
The results obtained are set out in the following table which gives the compounds tested and the ED50 values which are calculated by the method of regression on a test of at least three experiments for each compound studied.

[2] = system: analgesic activity of morphine; assay: Tail Flick Test: increase in the analgesic effect of morphine; assay type: in vivo, rats; settings: for percentage variation in the latency of the pain sensation, 10' / percentage variation in the latency of the pain sensation, 20' / percentage variation in the latency of the pain sensation, 30' / percentage variation in the latency of the pain sensation, 45' / percentage variation in the latency of the pain sensation, 60' / percentage variation in the latency of the pain sensation, 90' / M(10'-90') average percentage variation: compound 10 mg/kg i.p. + morphine 2 mg/kg (row Morphine: alone); for percentage variation in the latency of the pain sensation, 10' / percentage variation in the latency of the pain sensation, 20' / percentage variation in the latency of the pain sensation, 30' / percentage variation in the latency of the pain sensation, 45' / percentage variation in the latency of the pain sensation, 60' / percentage variation in the latency of the pain sensation, 90': ± S.E.; for M(10'-90') average percentage variation: mean 10'-90'; for Potency ratio relative to morphine alone: rat, in vivo
Description: Increase in the analgesic effect of analgesic-narcotic drugs in rats in the Tail Flick Test
The method is that described by Harris et al. (J. Pharmacol. Exp. Ther. 143 (1964) 141-148).
Male rats are used which have a weight of about 150-200 g and which have not been fasting. A point is chosen on the tail and this is irradiated by a heat source (75° C.) and the time (in seconds) for which the animal remains without moving its tail is measured.
A maximum period of time under the heat source of 8 seconds is chosen after which the animal is, in any case, removed in order to avoid tissue damage. The measurement is effected before (controls) and after treatment with the drugs.
. The percentage variation is calculated for each individual animal by the following formula: [formula] The measurements are carried out 10, 20, 30, 45, 60 and 90 minutes after treatment with the analgesics.
The results obtained are given in Table 1 which records the groups treated and the doses administered, the
average percentage variations (calculated on groups of five animals) in […]

Row | Compound | Anti CCK-8 activity, ED50 [1] | percentage variation in the latency of the pain sensation, 10' [2] | percentage variation in the latency of the pain sensation, 20' [2] | percentage variation in the latency of the pain sensation, 30' [2] | percentage variation in the latency of the pain sensation, 45' [2] | percentage variation in the latency of the pain sensation, 60' [2] | percentage variation in the latency of the pain sensation, 90' [2] | M(10'-90') average percentage variation [2] | Potency ratio relative to morphine alone [2]
1 | O=C(N[C@@H](Cc1c[nH]c2ccccc12)C(=O)O)OCc1ccc(C(F)(F)F)cc1 [Compound 7] | 108.7 µg/mL | 38.3 ± 13.7% | 34.4 ± 5.7% | 44.4 ± 14.8% | 48.3 ± 14.6% | 47.2 ± 16.9% | 47.9 ± 15.4% | 43.4% | 1.45
2 | CCCCCCCc1ccc(C(=O)N[C@@H](Cc2c[nH]c3ccccc23)C(=O)O)cc1 [Compound 27] | 148.5 µg/mL | 73.8 ± 18.1% | 95.2 ± 4.7% | 86.6 ± 9.0% | 87.7 ± 12.3% | 83.8 ± 9.9% | 88.4 ± 8.5% | 85.9% | 2.88
3 | CCCCCCCCCc1ccc(C(=O)N[C@@H](Cc2c[nH]c3ccccc23)C(=O)O)cc1 [Compound 28] | 18.9 µg/mL | 79.5 ± 12.7% | 100.0 ± 0.0% | 98.0 ± 2.0% | 100.0 ± 0.0% | 82.2 ± 17.8% | 78.8 ± 11.4% | 89.7% | 3.01
4 | O=C(N[C@@H](Cc1c[nH]c2ccccc12)C(=O)O)c1ccc(C(F)(F)F)cc1 [Compound 30] | IN (inactive up to 400 mcg/ml) | 9.8 ± 10.5% | 45.6 ± 16.1% | 69.3 ± 22.2% | 62.3 ± 21.9% | 54.8 ± 17.6% | 24.7 ± 15.5% | 43.6% | 1.46
5 | N#Cc1ccc(C(=O)N[C@@H](Cc2c[nH]c3ccccc23)C(=O)O)cc1 [Compound 31] | IN (inactive up to 400 mcg/ml) | 67.6 ± 16.1% | 66.3 ± 3.5% | 81.4 ± 14.7% | 73.4 ± 18.0% | 77.4 ± 10.3% | 21.3 ± 16.5% | 64.6% | 2.17
6 | O=C(N[C@@H](Cc1c[nH]c2ccccc12)C(=O)O)OCc1ccc(Br)cc1 [Compound 3] | 33.6 µg/mL | 70.7 ± 19.7% | 90.3 ± 9.7% | 74.7 ± 16.9% | 86.2 ± 11.0% | 100.0 ± 0.0% | 53.7 ± 17.2% | 79.3% | 2.66
7 | Cc1ccc(COC(=O)N[C@@H](Cc2c[nH]c3ccccc23)C(=O)O)cc1 [Compound 8] | 114.3 µg/mL | 12.4 ± 4.9% | 38.4 ± 22.2% | 56.5 ± 20.3% | 48.0 ± 26.1% | 48.5 ± 21.5% | 54.4 ± 24.7% | 43.0% | 1.44
8 | Cc1ccc(C(=O)N[C@@H](Cc2c[nH]c3ccccc23)C(=O)O)cc1 [Compound 18] | IN (inactive up to 400 mcg/ml) | 7.8 ± 16.1% | 14.9 ± 17.1% | 42.1 ± 18.3% | 26.6 ± 20.5% | 32.7 ± 25.9% | 41.1 ± 24.3% | 27.5% | 0.93
9 | Cc1ccc(C(=O)N[C@@H](Cc2c[nH]c3ccccc23)C(=O)O)cc1C [Compound 29] | IN (inactive up to 400 mcg/ml) | 54.7 ± 14.1% | 62.6 ± 16.5% | 62.8 ± 17.5% | 65.9 ± 16.0% | 51.4 ± 12.7% | 52.5 ± 15.7% | 58.3% | 1.96
10 | Cc1ccc(COC(=O)N[C@@H](Cc2c[nH]c3ccccc23)C(=O)O)cc1Cl [Compound 10] | 88.5 µg/mL | 51.5 ± 48.9% | 58.3 ± 16.5% | 66.0 ± 14.1% | 56.9 ± 17.0% | 56.2 ± 23.5% | 34.2 ± 8.4% | 55.5% | 1.86
11 | O=C(N[C@@H](Cc1c[nH]c2ccccc12)C(=O)O)c1ccc(F)cc1 [Compound 14] | 233.2 µg/mL | 47.9 ± 21.0% | 90.2 ± 9.8% | 80.0 ± 12.5% | 67.7 ± 19.8% | 70.5 ± 18.1% | 61.5 ± 11.8% | 69.6% | 2.33
12 | CCCCc1ccc(C(=O)N[C@@H](Cc2c[nH]c3ccccc23)C(=O)O)cc1 [Compound 23] | 74.0 µg/mL | 47.9 ± 15.7% | 50.3 ± 10.1% | 56.9 ± 20.6% | 67.2 ± 20.9% | 41.1 ± 16.3% | 36.1 ± 18.0% | 49.9% | 1.67
13 | O=C(N[C@@H](Cc1c[nH]c2ccccc12)C(=O)O)OCc1ccc(Cl)c(Cl)c1 [Compound 6] | 16.1 µg/mL | 68.6 ± 20.4% | 78.0 ± 17.9% | 80.4 ± 19.6% | 84.5 ± 11.4% | 76.3 ± 13.8% | 71.9 ± 15.2% | 78.6% | 2.57
14 | N#Cc1ccc(COC(=O)N[C@@H](Cc2c[nH]c3ccccc23)C(=O)O)cc1 [Compound 11] | 34.3 µg/mL | 53.4 ± 13.5% | 80.0 ± 13.0% | 90.4 ± 9.6% | 84.9 ± 15.1% | 55.6 ± 18.3% | 50.9 ± 20.7% | 72.9% | 2.45
